According to patent US7183314B1, “Compound for treatment of anxiety and methods of preparation and use thereof” (Naturon Limited, priority 2000, dated 2007):

Key:
Male ICR mice [1] = test: Elevated plus-maze; type: in vivo; settings: for Total (total number of arm entries): 5 minute test
Description: (§1) Male ICR mice weighing 18–23 g were used. They were housed in groups of four or five with free access to food and water and maintained on a 11 hour light: 13 hour dark cycle. All of the experimental groups, except acute lethal activity test (10 mice of either sex) have 16 animals per group.
(§2) For the chronic test, mice received 5 days pretreatment before the test. Flumazenil (Ro15-1788) was administrated intraperitoneally (IP) 15 minutes before testing in an injection volume of 12.5 ml/kg.
The elevated plus-maze was made of wood and consisted of two open arms (25×5 cm) and two opposite arms enclosed by 20 cm high walls. The arms extended from a central platform (5×5 cm). The plus-maze was elevated to a height of 40 cm. The maze was put inside a box 30×30×50 cm. […] The number of entries into and the time spent on the open and closed arms were counted. The total number of arm entries provided a measure of general activity, and anxiety reduces the number of such entries. At the end of the test, the number of entries into open arms was expressed as a percentage of the total number of arm entries. The time spent on the open arms was also expressed as a percentage of time spent on both the open and closed arms. Testing took place between 8 A.M. and 12 P.M. Mice were randomly allocated to different test groups, and tested in a randomized order of drug treatment in a room lit by dim light. After each trial, the floor of the apparatus was wiped and dried thoroughly with tissue to remove traces of the previous path.

Male ICR mice [2] = test: Holeboard test; type: in vivo; settings: oral; for Head-dip Number / Head-dip Time: 5 minutes
Description: as §1, §2
The holeboard was a wooden box, 60×60×30 cm, with four holes of 3 cm diameter equally spaced in the floor. Mice were placed in the center of the holeboard and the number of head-dips, the time spent head-dipping were counted during 5 minutes (File, S. E., and Pellow, S., Br J Pharmacol 86: 729–735, 1985). Mice were allocated to different test groups randomly, and tested in an randomized order of drug treatment between 8 A.M. and 12 P.M. in a room lit by dim light. After each trial, the floor of the apparatus was wiped and dried thoroughly with tissue to remove traces of the previous path. An increase in the number and time spent head-dipping in this test are indicative of a greater exploratory activity. Conversely, a decrease in any of these parameters compared to controls is symptomatic of sedated behavior (Nolan, N. A., and Parkes, M. W., Psychopharmacol 29: 277–288, 1973; File, S. E., and Wardill, A. G., Psychopharmacol 44: 53–59, 1975; File, S. E., and Pellow, S., Psychopharmacol 88:1–11, 1986).

Male ICR mice [3] = test: Horizontal wire test; type: in vivo; settings: up to 30 mg/kg, 1 hour after oral administration, FIG. 5
Description: as §1, §2
Mice were lifted by the tail and allowed to grasp a horizontally strung wire (1 mm diameter, 15 cm long and placed 20 cm above the table) with their forepaws and released (Bonetti, E. P., et al., Psychopharmacol 78: 8–18, 1982). […] After two trials performed at 5 minute intervals, the test took place. A myorelaxant drug impairs the capacity of the mice to grasp the wire. Such muscle relaxation is commonly associated with sedation.

Male ICR mice [4] = test: Locomotor activity test; type: in vivo; settings: oral; for Locomotor Activity Score: 5 minute period
Description: as §1, §2
A ZIL-2 apparatus (Beijing Institute of Materia Medica) with dimensions 60×60×12 cm was used. It consists of four circular plastic boxes with diameter 25 cm and each has 6 equally distributed infrared photocells. The locomotor activity was counted automatically during a 5 minute period of test. An increase in the number of transitions reflects an increased locomotor activity.

[5] = system: BZD-S of the GABAA-receptor; settings: as variously reported; cited from earlier work
[6] = Acute lethal activity test; settings: both sexes, ICR, mouse, in vivo; in mice
Description: as §1

[7] = Acute, 1 hour before test, 3.75 mg/kg
[8] = Acute, 1 hour before test, 7.5 mg/kg
[9] = Acute, 1 hour before test, 15 mg/kg
[10] = Acute, 1 hour before test, 30 mg/kg
[11] = Chronic (5 days pretreatment), 3.75 mg/kg
[12] = Chronic (5 days pretreatment), 7.5 mg/kg
[13] = Chronic (5 days pretreatment), 15 mg/kg
[14] = Chronic (5 days pretreatment), 30 mg/kg
[15] = Acute, 1 hour before test, 1 mg/kg
[16] = Chronic (5 days pretreatment), 1 mg/kg

COc1c(O)cc(O)c2c(=O)cc(-c3ccccc3)oc12 [wogonin]
Anxiolytic effects: open arm entries (acute), % time spent in open arms (acute), % open arm entries (chronic) (Male ICR mice [1]; 7.5, 15 or 30 mg/kg, oral, mice, FIG. 3): significant anxiolytic effects | Total (total number of arm entries) (Male ICR mice [1]; Acute, oral, 1 hour before test, 3.75 mg/kg): 34.56 ± 0.97 | Total (total number of arm entries) (Male ICR mice [1]; Acute, oral, 1 hour before test, 7.5 mg/kg): 45.56 ± 1.71 | Total (total number of arm entries) (Male ICR mice [1]; Acute, oral, 1 hour before test, 15 mg/kg): 43.50 ± 1.90 | Total (total number of arm entries) (Male ICR mice [1]; Acute, oral, 1 hour before test, 30 mg/kg): 47.00 ± 1.93 | Total (total number of arm entries) (Male ICR mice [1]; Chronic (5 days pretreatment), oral, 3.75 mg/kg): 27.56 ± 1.90 | Total (total number of arm entries) (Male ICR mice [1]; Chronic (5 days pretreatment), oral, 7.5 mg/kg): 31.75 ± 2.07 | Total (total number of arm entries) (Male ICR mice [1]; Chronic (5 days pretreatment), oral, 15 mg/kg): 31.56 ± 2.13 | Total (total number of arm entries) (Male ICR mice [1]; Chronic (5 days pretreatment), oral, 30 mg/kg): 31.31 ± 1.77 | Anxiolytic effect of wogonin after treatment with Flumazenil Ro15-1788 (Male ICR mice [1]; Flumazenil Ro15-1788 2.5 mg/kg IP 15 minutes before testing, mice, FIG. 4): completely abolished | Head-dip Number (Male ICR mice [2]; [7]): 23.88 ± 1.08 | Head-dip Time (Male ICR mice [2]; [7]): 27.00 ± 1.10 | Head-dip Number (Male ICR mice [2]; [8]): 31.06 ± 1.88 | Head-dip Time (Male ICR mice [2]; [8]): 36.38 ± 1.93 | Head-dip Number (Male ICR mice [2]; [9]): 37.00 ± 1.94 | Head-dip Time (Male ICR mice [2]; [9]): 42.25 ± 2.54 | Head-dip Number (Male ICR mice [2]; [10]): 42.75 ± 3.58 | Head-dip Time (Male ICR mice [2]; [10]): 48.19 ± 3.92 | Head-dip Number (Male ICR mice [2]; [11]): 23.88 ± 1.86 | Head-dip Time (Male ICR mice [2]; [11]): 26.88 ± 1.95 | Head-dip Number (Male ICR mice [2]; [12]): 32.31 ± 1.80 | Head-dip Time (Male ICR mice [2]; [12]): 38.00 ± 0.79 | Head-dip Number (Male ICR mice [2]; [13]): 32.81 ± 2.27 | Head-dip Time (Male ICR mice [2]; [13]): 37.38 ± 2.32 | Head-dip Number (Male ICR mice [2]; [14]): 30.13 ± 1.59 | Head-dip Time (Male ICR mice [2]; [14]): 35.88 ± 1.81 | Sedative effect (holeboard) (Male ICR mice [2]; up to 30 mg/kg, mice): did not induce a significant sedative effect | Myorelaxant effects (Male ICR mice [3]): devoid of myorelaxant effects | Locomotor Activity Score (Male ICR mice [4]; [7]): 189.44 ± 6.54 | Locomotor Activity Score (Male ICR mice [4]; [8]): 205.63 ± 13.11 | Locomotor Activity Score (Male ICR mice [4]; [9]): 207.38 ± 10.12 | Locomotor Activity Score (Male ICR mice [4]; [10]): 193.50 ± 6.39 | Locomotor Activity Score (Male ICR mice [4]; [11]): 149.75 ± 6.55 | Locomotor Activity Score (Male ICR mice [4]; [12]): 170.56 ± 12.00 | Locomotor Activity Score (Male ICR mice [4]; [13]): 172.75 ± 6.25 | Locomotor Activity Score (Male ICR mice [4]; [14]): 184.56 ± 7.88 | Sedative effects (change in motor activity) (Male ICR mice [4]; up to 30 mg/kg body weight, mice): did not induce any sedative effects | Binding affinity to the BZD-S of the GABAA-receptor [5]: weak or moderate | LD50 [6]: ~4000 mg/kg

CN1C(=O)CN=C(c2ccccc2)c2cc(Cl)ccc21 [diazepam, reference compound]
Total (total number of arm entries) (Male ICR mice [1]; Acute, oral, 1 hour before test, 1 mg/kg): 45.13 ± 2.31 | Total (total number of arm entries) (Male ICR mice [1]; Chronic (5 days pretreatment), oral, 1 mg/kg): 29.38 ± 2.67 | Head-dip Number (Male ICR mice [2]; [15]): 28.88 ± 2.16 | Head-dip Time (Male ICR mice [2]; [15]): 37.00 ± 0.79 | Head-dip Number (Male ICR mice [2]; [16]): 31.94 ± 3.57 | Head-dip Time (Male ICR mice [2]; [16]): 36.50 ± 3.59 | Locomotor Activity Score (Male ICR mice [4]; [15]): 225.29 ± 15.80 | Locomotor Activity Score (Male ICR mice [4]; [16]): 195.25 ± 13.03
